Data as given in publication PMC10003107, “Selectivity of Hydroxamate- and Difluoromethyloxadiazole-Based Inhibitors of Histone Deacetylase 6 In Vitro and in Cells” (International Journal of Molecular Sciences, 2023).
Read-outs that look alike come from different tables or passages of the source.

Experiments:
HDAC10 = biological target: T1, HDAC10 (Homo sapiens, UniProt Q969S8); experiment: In vitro deacetylation assay, HDAC10 (fluorescein-labeled N8-acetylspermidine, RP-HPLC); type: biochemical
T1 construct: HDAC10 1 – 667 Open Biosystems; Strep-FLAG-HALO (N); made in house; host or cells: HEK293/T17
T1 sequence (Q969S8 1-667): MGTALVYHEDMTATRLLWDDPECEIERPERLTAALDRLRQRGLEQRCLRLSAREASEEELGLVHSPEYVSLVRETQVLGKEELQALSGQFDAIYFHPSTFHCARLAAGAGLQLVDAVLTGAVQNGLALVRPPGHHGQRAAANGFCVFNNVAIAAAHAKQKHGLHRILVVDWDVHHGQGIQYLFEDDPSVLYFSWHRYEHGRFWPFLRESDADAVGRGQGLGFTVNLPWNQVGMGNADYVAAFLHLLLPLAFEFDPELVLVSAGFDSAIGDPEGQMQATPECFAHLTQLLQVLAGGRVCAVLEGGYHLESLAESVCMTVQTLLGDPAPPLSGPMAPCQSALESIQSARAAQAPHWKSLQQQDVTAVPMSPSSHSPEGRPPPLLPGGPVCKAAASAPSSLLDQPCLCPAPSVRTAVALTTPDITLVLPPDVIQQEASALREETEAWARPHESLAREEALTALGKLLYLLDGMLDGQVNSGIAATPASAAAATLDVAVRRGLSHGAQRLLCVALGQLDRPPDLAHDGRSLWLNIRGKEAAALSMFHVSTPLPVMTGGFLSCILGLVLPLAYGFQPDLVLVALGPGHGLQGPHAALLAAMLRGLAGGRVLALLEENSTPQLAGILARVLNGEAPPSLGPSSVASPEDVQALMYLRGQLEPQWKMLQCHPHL

tubulin acetylation = experiment: Tubulin acetylation in RPMI-8226 cells by quantitative Western blotting; type: cell-based
histone H3 acetylation = experiment: Histone H3 (K9/K14) acetylation in RPMI-8226 cells by Western blotting; type: cell-based; conditions: 6 h, Western blot
MTT viability assay = type: cell-based; conditions: human, RPMI-8226 lymphoblasts, RPMI-8226 cells, read-out: EC50 cytotoxicity (MTT viability)
Experimental: (§1) RPMI-8226 lymphoblasts (ATTC #CCL-155) were used to assess the cytotoxicity of tested compounds. […] Dilution series of tested inhibitors were prepared as 10x stock solutions in PBS and 10 μL was added to cells and incubated under a 5% CO2 atmosphere at 37 °C, for 2 days. Following incubation, 10 μL of MTT reagent (3-(4,5-dimethylthiazol-2-yl)-2,5-diphenyltetrazolium bromide, 5 mg/mL in PBS, Sigma Aldrich) was added to each well and incubated for 90 min, 37 °C, 5% CO2. […]

RPMI-8226 lymphoblasts = experiment: MTT viability assay; type: cell-based; conditions: RPMI-8226 cells, 48 h; for EC50: read-out: EC50 cytotoxicity (MTT viability)
Experimental: as §1

HDAC1 [1] = biological target: T2, HDAC1 (Homo sapiens, UniProt Q13547); experiment: In vitro deacetylation assay, HDAC1 (GAK substrate); type: biochemical; conditions: for IC50: purified human HDAC1, GAK substrate 10 µM
T2 construct: HDAC1 1-482 Addgene; Strep-FLAG-HALO (N); made in house; host or cells: HEK293/T17
T2 sequence (Q13547 whole entry): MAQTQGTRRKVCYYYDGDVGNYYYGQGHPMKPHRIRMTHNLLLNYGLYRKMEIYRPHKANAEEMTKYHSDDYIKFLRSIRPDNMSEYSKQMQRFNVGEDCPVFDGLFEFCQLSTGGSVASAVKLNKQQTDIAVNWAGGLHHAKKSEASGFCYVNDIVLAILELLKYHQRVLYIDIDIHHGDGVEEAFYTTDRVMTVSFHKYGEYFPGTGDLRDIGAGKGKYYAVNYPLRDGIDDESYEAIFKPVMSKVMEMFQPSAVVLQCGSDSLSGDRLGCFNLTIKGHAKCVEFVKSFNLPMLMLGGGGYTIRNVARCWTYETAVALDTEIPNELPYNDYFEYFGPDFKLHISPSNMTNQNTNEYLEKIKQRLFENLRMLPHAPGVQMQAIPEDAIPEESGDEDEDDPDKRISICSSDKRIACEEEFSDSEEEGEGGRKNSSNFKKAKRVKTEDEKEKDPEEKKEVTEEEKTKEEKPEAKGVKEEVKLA

HDAC1 [2] = biological target: T2, HDAC1; experiment: In vitro deacetylation assay, HDAC1 (RHKK substrate); type: biochemical; conditions: for IC50: purified human HDAC1, RHK[AcK]-AMC (RHKK) substrate
HDAC1-nanoLuc = HDAC1-nanoLuc (Homo sapiens, UniProt Q13547); experiment: nanoBRET target engagement assay, HDAC1; type: cell-based; conditions: HEK293T/17 cells stably expressing HDAC1-nanoLuc, 2 h
Sequence of HDAC1-nanoLuc (Q13547 whole entry): as above

HDAC6 = biological target: T3, HDAC6 (Homo sapiens, UniProt Q9UBN7); experiment: In vitro deacetylation assay, HDAC6 (GAK substrate); type: biochemical; conditions: purified human HDAC6, Ac-GAK-Ac-AMC (GAK) substrate 10 µM
T3 construct: HDAC6 2-1215 Open Biosystems; Strep-FLAG-HALO (N); made in house; host or cells: HEK293/T17
T3 sequence (Q9UBN7 2-1215): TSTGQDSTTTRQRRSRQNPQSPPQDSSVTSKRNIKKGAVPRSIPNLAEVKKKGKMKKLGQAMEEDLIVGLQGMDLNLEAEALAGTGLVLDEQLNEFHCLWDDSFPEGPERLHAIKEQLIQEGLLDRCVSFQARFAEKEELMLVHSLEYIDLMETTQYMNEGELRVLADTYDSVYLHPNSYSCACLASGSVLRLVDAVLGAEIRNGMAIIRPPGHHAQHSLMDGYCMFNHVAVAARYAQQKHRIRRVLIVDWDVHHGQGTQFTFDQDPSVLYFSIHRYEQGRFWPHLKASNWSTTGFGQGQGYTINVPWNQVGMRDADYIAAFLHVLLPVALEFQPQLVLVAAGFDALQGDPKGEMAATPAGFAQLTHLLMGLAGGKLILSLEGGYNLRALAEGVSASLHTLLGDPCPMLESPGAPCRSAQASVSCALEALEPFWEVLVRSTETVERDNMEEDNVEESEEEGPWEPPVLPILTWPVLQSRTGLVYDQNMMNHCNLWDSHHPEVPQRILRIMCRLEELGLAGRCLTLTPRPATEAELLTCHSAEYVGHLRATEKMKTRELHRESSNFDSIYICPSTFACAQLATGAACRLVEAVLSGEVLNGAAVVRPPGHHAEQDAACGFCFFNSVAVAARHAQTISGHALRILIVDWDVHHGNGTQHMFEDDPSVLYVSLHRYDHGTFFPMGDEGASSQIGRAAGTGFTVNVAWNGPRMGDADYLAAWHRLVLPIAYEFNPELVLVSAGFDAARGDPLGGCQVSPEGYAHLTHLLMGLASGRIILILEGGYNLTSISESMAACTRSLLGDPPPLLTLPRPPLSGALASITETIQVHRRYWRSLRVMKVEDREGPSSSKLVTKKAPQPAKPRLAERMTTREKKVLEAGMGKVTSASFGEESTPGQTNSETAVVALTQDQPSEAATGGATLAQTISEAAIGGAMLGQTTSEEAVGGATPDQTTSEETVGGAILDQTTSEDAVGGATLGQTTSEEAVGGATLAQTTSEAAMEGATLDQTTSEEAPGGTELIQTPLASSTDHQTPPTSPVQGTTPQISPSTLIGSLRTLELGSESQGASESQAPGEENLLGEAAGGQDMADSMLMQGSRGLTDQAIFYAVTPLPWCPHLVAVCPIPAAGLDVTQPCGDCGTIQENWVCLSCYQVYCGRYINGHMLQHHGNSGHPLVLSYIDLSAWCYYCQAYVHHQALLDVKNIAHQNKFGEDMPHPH

[3] = Homo sapiens, RPMI-8226, 6 h, read-out: IC50 tubulin deacetylation (relative tubulin acetylation), RPMI-8226 cells, 6 h, Western blot; called EC50 in text

Compound	IC50 (tubulin acetylation; [3])	effect on histone H3 (K9/K14) acetylation, class I HDAC inhibition (histone H3 acetylation)	EC50 at 48 h (MTT viability assay)	EC50 (RPMI-8226 lymphoblasts)	IC50 (HDAC1 [1])	IC50 (HDAC1 [2])	further results
O=C(CCCCCCNC(=O)c1cnc(N(c2ccccc2)c2ccccc2)nc1)NO [ACY-1215, rocilinostat]	619 nM	the most potent class I HDAC inhibitors	2890 nM	2900 nM			IC50 (HDAC10): 18.2 nM
CCCCN(Cc1ccc(C(=O)NO)cc1)C(=O)Nc1ccccc1 [Next A, Nexturastat A]	249 nM		2810 nM	2800 nM			
CC(/C=C/C(=O)NO)=C\[C@@H](C)C(=O)c1ccc(N(C)C)cc1 [TSA, Trichostatin A]		the most potent class I HDAC inhibitors	237 nM	240 nM			IC50 (tubulin acetylation; Homo sapiens, RPMI-8226, 6 h, read-out: IC50 tubulin deacetylation (relative tubulin acetylation)): 136 nM; IC50 (tubulin acetylation; Homo sapiens, RPMI-8226, 6 h, read-out: potency to inhibit tubulin deacetylation): 136 nM; IC50 (tubulin acetylation; read-out: IC50 tubulin deacetylation (relative tubulin acetylation)): 140 nM
CN1CCc2c(c3ccccc3n2Cc2ccc(C(=O)NO)cc2)C1 [Tub A, Tubastatin A]			21600 nM				IC50 (tubulin acetylation; Homo sapiens, RPMI-8226, 6 h; read-out: IC50 tubulin deacetylation (relative tubulin acetylation)): 985 nM; effect on cell viability (RPMI-8226 lymphoblasts; MTT): less pronounced effects on cell viability at high inhibitor concentrations
O=C(CCCCCCC(=O)Nc1ccc([C@H]2O[C@@H](CSc3nc(-c4ccccc4)c(-c4ccccc4)o3)C[C@@H](c3ccc(CO)cc3)O2)cc1)NO [Tubacin]	1710 nM		6510 nM	6500 nM	102 nM	15100 nM	EC50 (HDAC1 [1]; Figure 2C, in vitro data (GAK) in μM): 0.1 µM; EC50 (HDAC1-nanoLuc): 13200 nM; IC50 (tubulin acetylation; read-out: IC50 tubulin deacetylation (relative tubulin acetylation); RPMI-8226 cells, 6 h, Western blot; called EC50 in text): 1700 nM
CS(=O)(=O)N(Cc1ccc(C(=O)NO)cn1)c1cccc(Cl)c1 [compound 6, 6-((N-(3-Chlorophenyl)methylsulfonamido)methyl)-N-hydroxynicotinamide]			998 nM		49.2 nM	281 nM	IC50 (HDAC6): 0.35 nM; SI (HD6/HD1) GAK, in vitro (HDAC1 [1]; ratio of IC50 HDAC1 (GAK) divided by IC50 HDAC6): 141; SI (HD6/HD1) RHKK (HDAC1 [2]; ratio of IC50 HDAC1 (RHKK) divided by IC50 HDAC6): 803; IC50 (HDAC10; purified human HDAC10, read-out: IC50 HDAC10): 68.3 nM; SI (HD6/HD10) (HDAC10; ratio of IC50 HDAC10 divided by IC50 HDAC6): 195
